These results are taken from PMC3624624 (Bioorganic & medicinal chemistry letters, 2013).

The target of data set [1] is T1, CXCR4 (Homo sapiens, UniProt P61073). Briefly: Inhibition of binding of anti-CXCR4 mAbs to cells. To be noted: for blocking of anti-CXCR4 mAb 44716 binding: H9 lymphoma cells, 1 μM compound, Fig. 2A; for inhibition of binding of anti-CXCR4 mAb 12G5 / inhibition of binding of anti-CXCR4 mAb 44708 / inhibition of binding of anti-CXCR4 mAb 44716 / inhibition of binding of anti-CXCR4 mAb 44717: 3 μM, Fig. 2C; for inhibition of anti-CXCR4 mAb 12G5 binding: titration, H9 cells and primary T cell blasts, Fig. 2B. Format: cell-based.

The subject of a further data set is H9. Briefly: MTS toxicity on H9. Format: cell-based. The note with it: H9, 72 h, concentrations up to 4 μM, data not shown.
The next data set has as its target CD4 (Homo sapiens, UniProt P01730). The data set is described as follows: Inhibition of binding of control anti-CD4 mAb Sim.2 to cells. Format: cell-based. The note with it: titration, H9 cells and primary T cell blasts, Fig. 2B.
For data set [2], the target named is T1, CXCR4. The data set is described as follows: Fluorescent T-140/CXCR4 cross-link inhibition. Type of data set: binding.
The next data set concerns PHA blast cultures. Briefly: MTS toxicity on PHA blast cultures. Type of data set: cell-based. To be noted: 72 h, concentrations up to 4 μM, data not shown.
A further data set has as its system X4 strains of HIV-1. Briefly: TZM-bl HIV-1 neutralization assay, X4 isolates. To be noted: TZM-bl cells, Fig. 3B. Format: cell-based.
The next data set concerns TZM-bl. The data set is described as follows: MTS toxicity on TZM-bl. Type of data set: cell-based. To be noted: 72 h, concentrations up to 4 μM, data not shown.

T1 sequence (P61073 whole entry): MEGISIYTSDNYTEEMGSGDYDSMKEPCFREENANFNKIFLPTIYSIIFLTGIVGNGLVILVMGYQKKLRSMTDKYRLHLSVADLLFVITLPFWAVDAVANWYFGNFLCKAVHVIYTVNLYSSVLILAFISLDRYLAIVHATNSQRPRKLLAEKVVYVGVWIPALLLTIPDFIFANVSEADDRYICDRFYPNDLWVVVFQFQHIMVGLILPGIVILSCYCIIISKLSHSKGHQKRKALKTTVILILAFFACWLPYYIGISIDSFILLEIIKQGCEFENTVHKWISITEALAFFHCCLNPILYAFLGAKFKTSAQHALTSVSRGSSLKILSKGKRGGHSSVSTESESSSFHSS

On to `N=C(NCCCNCCCCN(CCCNC(=N)Nc1ccc2ccccc2c1)C(=N)Nc1ccc2ccccc2c1)Nc1ccc2ccccc2c1` [spermine tris-2-NapG, spermine tris-2-naphthylguanide], for which, at CXCR4 [1], the “blocking of anti-CXCR4 mAb 44716 binding” value was “next best”.

For the compound `NCCCNCCCCNCCCN` [spermine, reference compound], on CXCR4 [1], the “inhibition of binding of anti-CXCR4 mAb 12G5” value is “No inhibition”, the “inhibition of binding of anti-CXCR4 mAb 44708” value was “No inhibition”, the “inhibition of binding of anti-CXCR4 mAb 44716” value is recorded as “No inhibition” and the “inhibition of binding of anti-CXCR4 mAb 44717” value was “No inhibition”. Besides, the “inhibition of anti-CXCR4 mAb 12G5 binding” value at CXCR4 [1] is listed as “does not inhibit”.

Regarding `N=C(NCCCNCCCCN(CCCNC(=N)Nc1cccc2ccccc12)C(=N)Nc1cccc2ccccc12)Nc1cccc2ccccc12` [spermine tris-1-NapG, spermine tris-1-naphthylguanide], the “inhibition in MTS dye reduction” value in the data set on H9 is on record as “no significant inhibition”. Moreover, at CXCR4 [1], the “inhibition of binding of anti-CXCR4 mAb 12G5” value is reported as “completely inhibited”, the “inhibition of binding of anti-CXCR4 mAb 44708” value is “only partly inhibited”, the “inhibition of binding of anti-CXCR4 mAb 44716” value is “completely inhibited” and the “inhibition of binding of anti-CXCR4 mAb 44717” value was “only partly inhibited”. Moreover, on CXCR4 [1], the “blocking of anti-CXCR4 mAb 44716 binding” value is listed as “most effective” and the “inhibition of anti-CXCR4 mAb 12G5 binding” value is listed as “inhibits anti-CXCR4 binding”. The “inhibition of anti-CD4 mAb Sim.2 binding” value on CD4 is “not anti-CD4”. Also, the “fold higher CXCR4 affinity than the previously published phenylguanides” value at CXCR4 [2] is listed as 5 fold. Moreover, the “inhibition in MTS dye reduction” value with PHA blast cultures is given as “no significant inhibition”. Further, the “inhibition of a panel of four X4-tropic viruses” value in the data set with X4 strains of HIV-1 is given as “all were inhibited at submicromolar concentrations”. Besides, the “inhibition in MTS dye reduction” value in the data set with TZM-bl was “no significant inhibition”.
